In PMC7665585, “Antidepressive effect of an inward rectifier K^+ channel blocker peptide, tertiapin-RQ” (PLoS ONE, 2020):
Entries after “also recorded” stand apart in the source; their conditions may differ. Bridge positions count the residues as written; N and C are the ends. Ends that are not written are not given here. Peptide text beside a SMILES is read from it.

The compounds below were run against T1, rat ROMK (Rattus norvegicus, UniProt P35560) (assay: Whole-cell patch-clamp of ROMK currents in 208–4 cells). Conditions: blockade at 1 μM estimated from fitted Hill curve (four parameters), whole-cell conductance, n = 3–6.
T1 construct: expressed in transfected cells; host or cells: 293T cell line 208-4 (lentiviral transduction, GFP coexpressed)
T1 sequence (P35560 1-391): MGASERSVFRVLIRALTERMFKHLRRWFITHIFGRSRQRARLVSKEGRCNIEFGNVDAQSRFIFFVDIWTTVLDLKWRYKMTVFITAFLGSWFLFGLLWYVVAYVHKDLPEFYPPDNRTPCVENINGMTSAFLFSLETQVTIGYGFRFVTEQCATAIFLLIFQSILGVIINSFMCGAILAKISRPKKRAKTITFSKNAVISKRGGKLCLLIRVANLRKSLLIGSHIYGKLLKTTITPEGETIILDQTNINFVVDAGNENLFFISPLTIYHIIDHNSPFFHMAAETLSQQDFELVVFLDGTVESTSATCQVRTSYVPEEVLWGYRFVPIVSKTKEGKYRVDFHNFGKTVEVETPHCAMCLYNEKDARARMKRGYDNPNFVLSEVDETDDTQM
Assay type: cell-based
Procedure, shortened: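 ROMK stably expressed in 208–4 cells; GIRK transiently in 293T, recorded 24 h post-transfection; 25°C, Tyrode (high-K+ 50 mM for GIRK), K-aspartate/KCl pipette with 3 mM MgATP. Steps −150 to 10 mV from −70 mV; currents 60 s after peptide; conductance from I-V slope −140 to −100 mV, Ba2+-resistant current subtracted, normalized to 0 μM TPN.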

| Compound | Activity (ROMK channel blocking activity, percentage of blockade at 1 μM) |
| --- | --- |
| TPN-RQ(C5S) [Peptide 46] | - (-, <20%) |

Same assay, conditions: blockade at 1 μM estimated from fitted Hill curve (four parameters), whole-cell conductance, n = 3–6, read-out: Activity (ROMK channel blocking activity, percentage of blockade at 1 μM)

| Compound | inhibition at 1 µM [%] |
| --- | --- |
| CC[C@H](C)[C@@H]1NC(=O)[C@H](CCCNC(=N)N)NC(=O)[C@H](CCCNC(=N)N)NC(=O)[C@H](CC(N)=O)NC(=O)[C@@H](NC(=O)[C@@H](N)CC(N)=O)CSSC[C@@H](C(=O)N[C@@H](Cc2c[nH]c3ccccc23)C(=O)N[C@@H](CCCCN)C(=O)N[C@@H](CCCCN)C(N)=O)NC(=O)[C@H](CCC(N)=O)NC(=O)[C@H](CCCCN)NC(=O)[C@@H]2CCCN2C(=O)[C@H]([C@@H](C)CC)NC1=O [Peptide 40, TPN-RQ 4-17(H12K)] (H-NCNRRIIPKQCWKK-NH2; disulfide 2-11) | < 20 |
| CC[C@H](C)[C@@H]1NC(=O)[C@H](CCCNC(=N)N)NC(=O)[C@H](CCCNC(=N)N)NC(=O)[C@H](CC(N)=O)NC(=O)[C@@H]2CSSC[C@@H](C(=O)NCC(N)=O)NC(=O)[C@H](CCCCN)NC(=O)[C@H](CCCCN)NC(=O)[C@H](Cc3c[nH]c4ccccc34)NC(=O)[C@H](CSSC[C@H](NC(=O)[C@H](CC(C)C)NC(=O)[C@H](C)N)C(=O)N[C@@H](CC(N)=O)C(=O)N2)NC(=O)[C@H](CCC(N)=O)NC(=O)[C@H](Cc2c[nH]cn2)NC(=O)[C@@H]2CCCN2C(=O)[C@H]([C@@H](C)CC)NC1=O [Peptide 71, TPN-RQ(Δ20K/Δ21K)] (H-ALCNCNRRIIPHQCWKKCG-NH2; disulfide 3-14, 5-18) | 20 to 40 |
| IIIPHMCW-NH2 [Peptide 11, TPN 8–15] | < 20 |
| CC[C@H](C)[C@@H]1NC(=O)[C@H](C)NC(=O)[C@H](C)NC(=O)[C@H](CC(N)=O)NC(=O)[C@@H]2CSSC[C@@H](C(=O)NCC(=O)N[C@@H](CCCCN)C(=O)N[C@@H](CCCCN)C(N)=O)NC(=O)[C@H](CCCCN)NC(=O)[C@H](CCCCN)NC(=O)[C@H](Cc3c[nH]c4ccccc34)NC(=O)[C@H](CSSC[C@H](NC(=O)[C@H](CC(C)C)NC(=O)[C@H](C)N)C(=O)N[C@@H](CC(N)=O)C(=O)N2)NC(=O)[C@H](CCC(N)=O)NC(=O)[C@H](Cc2c[nH]cn2)NC(=O)[C@@H]2CCCN2C(=O)[C@H]([C@@H](C)CC)NC1=O [Peptide 58, TPN-RQ(R7A/R8A)] (H-ALCNCNAAIIPHQCWKKCGKK-NH2; disulfide 3-14, 5-18) | < 20 |
| CC[C@H](C)[C@@H]1NC(=O)[C@H](CCCNC(=N)N)NC(=O)[C@H](CCCNC(=N)N)NC(=O)[C@H](CC(N)=O)NC(=O)[C@@H]2CSSC[C@@H](C(=O)NCC(=O)N[C@@H](CCCCN)C(=O)N[C@@H](C)C(N)=O)NC(=O)[C@H](CCCCN)NC(=O)[C@H](CCCCN)NC(=O)[C@H](Cc3c[nH]c4ccccc34)NC(=O)[C@H](CSSC[C@H](NC(=O)[C@H](CC(C)C)NC(=O)[C@H](C)N)C(=O)N[C@@H](CC(N)=O)C(=O)N2)NC(=O)[C@H](CCC(N)=O)NC(=O)[C@H](Cc2c[nH]cn2)NC(=O)[C@@H]2CCCN2C(=O)[C@H]([C@@H](C)CC)NC1=O [Peptide 69, TPN-RQ(K21A)] (H-ALCNCNRRIIPHQCWKKCGKA-NH2; disulfide 3-14, 5-18) | 40 to 60 |
| RRIIPHQK-NH2 [Peptide 22, TPN-RQ 7–13 + K] | < 20 |
| CC[C@H](C)[C@@H]1NC(=O)[C@H](CCCNC(=N)N)NC(=O)[C@H](CC(N)=O)NC(=O)[C@@H](NC(=O)[C@H](CC(N)=O)NC(=O)[C@H](CO)NC(=O)[C@H](CC(C)C)NC(=O)[C@H](C)N)CSSC[C@@H](C(=O)NCC(=O)N[C@@H](CCCCN)C(=O)N[C@@H](CCCCN)C(N)=O)NC(=O)[C@H](CCCCN)NC(=O)[C@H](CCCCN)NC(=O)[C@H](Cc2c[nH]c3ccccc23)NC(=O)[C@H](CO)NC(=O)[C@H](CCC(N)=O)NC(=O)[C@H](Cc2c[nH]cn2)NC(=O)[C@@H]2CCCN2C(=O)[C@H]([C@@H](C)CC)NC(=O)[C@H]([C@@H](C)CC)NC1=O [Peptide 49, TPN-Q(C3S/C14S)] (H-ALSNCNRIIIPHQSWKKCGKK-NH2; disulfide 5-18) | < 20 |
| CC[C@H](C)[C@@H]1NC(=O)[C@H](C)NC(=O)[C@H](CCCNC(=N)N)NC(=O)[C@H](CCCNC(=N)N)NC(=O)[C@H](CC(N)=O)NC(=O)[C@@H]2CSSC[C@@H](C(=O)NCC(=O)N[C@@H](CCCCN)C(=O)N[C@@H](CCCCN)C(N)=O)NC(=O)[C@H](CCCCN)NC(=O)[C@H](CCCCN)NC(=O)[C@H](Cc3c[nH]c4ccccc34)NC(=O)[C@H](CSSC[C@H](NC(=O)[C@H](CC(C)C)NC(=O)[C@H](C)N)C(=O)N[C@@H](CC(N)=O)C(=O)N2)NC(=O)[C@H](CCC(N)=O)NC(=O)[C@H](Cc2c[nH]cn2)NC(=O)[C@@H]2CCCN2C1=O [Peptide 60, TPN-RQ(I9A)] (H-ALCNCNRRAIPHQCWKKCGKK-NH2; disulfide 3-14, 5-18) | 40 to 60 |
| CC(C)C[C@H](NC(=O)[C@H](C)N)C(=O)N[C@H]1CSSC[C@@H]2NC(=O)[C@H](CCC(N)=O)NC(=O)[C@H](Cc3c[nH]cn3)NC(=O)[C@@H]3CCCN3C(=O)[C@H](CCCNC(=N)N)NC(=O)[C@H](CCCNC(=N)N)NC(=O)[C@H](CC(N)=O)NC(=O)[C@H](CSSC[C@@H](C(=O)NCC(=O)N[C@@H](CCCCN)C(=O)N[C@@H](CCCCN)C(N)=O)NC(=O)[C@H](CCCCN)NC(=O)[C@H](CCCCN)NC(=O)[C@H](Cc3c[nH]c4ccccc34)NC2=O)NC(=O)[C@H](CC(N)=O)NC1=O [Peptide 53, TPN-RQ(ΔI9/ΔI10)] (H-ALCNCNRRPHQCWKKCGKK-NH2; disulfide 3-12, 5-16) | < 20 |
| CC[C@H](C)[C@@H]1NC(=O)[C@H](CCCNC(=N)N)NC(=O)[C@H](CCCNC(=N)N)NC(=O)[C@H](CC(N)=O)NC(=O)[C@@H]2CSSC[C@@H](C(=O)NCC(=O)N[C@@H](CCCCN)C(=O)N[C@@H](CCCCN)C(N)=O)NC(=O)[C@H](C)NC(=O)[C@H](C)NC(=O)[C@H](Cc3c[nH]c4ccccc34)NC(=O)[C@H](CSSC[C@H](NC(=O)[C@H](CC(C)C)NC(=O)[C@H](C)N)C(=O)N[C@@H](CC(N)=O)C(=O)N2)NC(=O)[C@H](CCC(N)=O)NC(=O)[C@H](Cc2c[nH]cn2)NC(=O)[C@@H]2CCCN2C(=O)[C@H]([C@@H](C)CC)NC1=O [Peptide 66, TPN-RQ(K16A/K17A)] (H-ALCNCNRRIIPHQCWAACGKK-NH2; disulfide 3-14, 5-18) | 20 to 40 |
| RRIIAHQK-NH2 [Peptide 27, TPN-RQ 7-13(P11A) + K] | < 20 |
| CC[C@H](C)[C@@H]1NC(=O)[C@H](CCCNC(=N)N)NC(=O)[C@H](CCCNC(=N)N)NC(=O)[C@H](CC(N)=O)NC(=O)[C@@H]2CSSC[C@@H](C(=O)NCC(=O)N[C@@H](CCCCN)C(=O)N[C@@H](CCCCN)C(N)=O)NC(=O)[C@H](CCCCN)NC(=O)[C@H](CCCCN)NC(=O)[C@H](Cc3c[nH]c4ccccc34)NC(=O)[C@H](CSSC[C@H](NC(=O)[C@H](C)NC(=O)[C@H](C)N)C(=O)N[C@@H](CC(N)=O)C(=O)N2)NC(=O)[C@H](CCC(N)=O)NC(=O)[C@H](Cc2c[nH]cn2)NC(=O)[C@@H]2CCCN2C(=O)[C@H]([C@@H](C)CC)NC1=O [Peptide 55, TPN-RQ(L2A)] (H-AACNCNRRIIPHQCWKKCGKK-NH2; disulfide 3-14, 5-18) | 60 to 80 |
| RRAIPHQK-NH2 [Peptide 25, TPN-RQ 7-13(I9A) + K] | < 20 |
| CC[C@H](C)[C@@H]1NC(=O)[C@H](CCCNC(=N)N)NC(=O)[C@H](CCCNC(=N)N)NC(=O)[C@H](CC(N)=O)NC(=O)[C@@H]2CSSC[C@@H](C(=O)N[C@@H](C)C(=O)N[C@@H](CCCCN)C(=O)N[C@@H](CCCCN)C(N)=O)NC(=O)[C@H](CCCCN)NC(=O)[C@H](CCCCN)NC(=O)[C@H](Cc3c[nH]c4ccccc34)NC(=O)[C@H](CSSC[C@H](NC(=O)[C@H](CC(C)C)NC(=O)[C@H](C)N)C(=O)N[C@@H](CC(N)=O)C(=O)N2)NC(=O)[C@H](CCC(N)=O)NC(=O)[C@H](Cc2c[nH]cn2)NC(=O)[C@@H]2CCCN2C(=O)[C@H]([C@@H](C)CC)NC1=O [Peptide 67, TPN-RQ(G19A)] (H-ALCNCNRRIIPHQCWKKCAKK-NH2; disulfide 3-14, 5-18) | 60 to 80 |
| RRIIPHMC-NH2 [Peptide 19, TPN-R 7–14] | < 20 |
| CC[C@H](C)[C@@H]1NC(=O)[C@H](CCCNC(=N)N)NC(=O)[C@H](CCCNC(=N)N)NC(=O)[C@H](CC(N)=O)NC(=O)[C@@H](NC(=O)[C@@H](N)CC(N)=O)CSSC[C@@H](C(=O)N[C@@H](Cc2c[nH]c3ccccc23)C(=O)N[C@@H](CCCCN)C(=O)N[C@@H](CCCCN)C(N)=O)NC(=O)[C@H](CCC(N)=O)NC(=O)[C@H](Cc2c[nH]cn2)NC(=O)[C@@H]2CCCN2C(=O)[C@H]([C@@H](C)CC)NC1=O [Peptide 39, TPN-RQ 4–17] (H-NCNRRIIPHQCWKK-NH2; disulfide 2-11) | < 20 |
| RAIIPHQK-NH2 [Peptide 24, TPN-RQ 7-13(R8A) + K] | < 20 |

Same assay, conditions: whole-cell recordings

| Compound | ROMK blocking activity (in words) |
| --- | --- |
| TPN-RQ(C5S) [Peptide 46] | little blocking activity; also recorded: scarcely blocked the channel |
